According to PubChem BioAssay (NCI):
In brackets after ≈: the same amount, converted by molar mass.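 1) Cells in 96-well plates. 2) Compound, 48 h, 5 concentrations. 3) Linear interpolation between surrounding doses. 4) Unreached endpoint = highest concentration. GI50 = concentration required for 50% inhibition of growth. TGI marks complete inhibition of growth.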 Where a SMILES comes first, the peptide text is derived from it. The star is where a group is joined. Boc = CC(C)(C)OC(=O)*; OcHex = C1CCC(O*)CC1

What was measured:
Assay in all cases: NCI-60 cell line screen, 48 h
HOP-92 NSCLC = test system: HOP-92 NSCLC
SK-OV-3 ovarian = test system: SK-OV-3 ovarian
NCI-H522 lung = test system: NCI-H522 lung
SNB-75 CNS = test system: SNB-75 CNS
UO-31 renal = test system: UO-31 renal
UACC-257 melanoma = test system: UACC-257 melanoma
M14 melanoma = test system: M14 melanoma
MOLT-4 leukemia = test system: MOLT-4 leukemia
K-562 leukemia = test system: K-562 leukemia
BT-549 breast = test system: BT-549 breast
MALME-3M melanoma = test system: MALME-3M melanoma
SK-MEL-28 melanoma = test system: SK-MEL-28 melanoma
UACC-62 melanoma = test system: UACC-62 melanoma
EKVX NSCLC = test system: EKVX NSCLC
U251 CNS = test system: U251 CNS
ACHN renal = test system: ACHN renal
MDA-MB-231 breast = test system: MDA-MB-231 breast
NCI-H23 lung = test system: NCI-H23 lung
MDA-MB-435 = test system: MDA-MB-435
786-0 renal = test system: 786-0 renal
COLO 205 colon = test system: COLO 205 colon
SN12C renal = test system: SN12C renal
RXF 393 renal = test system: RXF 393 renal
CAKI-1 renal = test system: CAKI-1 renal
MCF7 breast = test system: MCF7 breast
SF-295 CNS = test system: SF-295 CNS
DU-145 prostate = test system: DU-145 prostate
HCT-15 colon = test system: HCT-15 colon
OVCAR-8 ovarian = test system: OVCAR-8 ovarian
HCT-116 colon = test system: HCT-116 colon
NCI/ADR-RES ovarian = test system: NCI/ADR-RES ovarian
A549 NSCLC = test system: A549 NSCLC
SW-620 colon = test system: SW-620 colon
OVCAR-5 ovarian = test system: OVCAR-5 ovarian
LOX IMVI melanoma = test system: LOX IMVI melanoma
IGROV1 ovarian = test system: IGROV1 ovarian
KM12 colon = test system: KM12 colon
PC-3 prostate = test system: PC-3 prostate
SK-MEL-5 melanoma = test system: SK-MEL-5 melanoma
HOP-62 NSCLC = test system: HOP-62 NSCLC
SK-MEL-2 melanoma = test system: SK-MEL-2 melanoma
SF-268 CNS = test system: SF-268 CNS
HS 578T breast = test system: HS 578T breast
TK-10 renal = test system: TK-10 renal
SNB-19 CNS = test system: SNB-19 CNS
OVCAR-4 ovarian = test system: OVCAR-4 ovarian
HT29 colon = test system: HT29 colon
SF-539 CNS = test system: SF-539 CNS
NCI-H226 lung = test system: NCI-H226 lung
A498 renal = test system: A498 renal
T-47D breast = test system: T-47D breast

**Q.** For `CC(C)CC(NC(=O)OC(C)(C)C)C(=O)NC(CCC(=O)OC1CCCCC1)C(N)=O` (stereo not drawn) (Boc-Leu-Glu(OcHex)-NH2; configuration not given here), which GI50 (HOP-92 NSCLC) is on record?
**A.** 12.5 µg/mL (≈ 28.4 µM)

**Q.** What about the TGI (HOP-92 NSCLC) of the same compound?
**A.** 36.7 µg/mL (≈ 83 µM)

**Q.** What about the GI50 (SK-OV-3 ovarian) of the same compound?
**A.** 92.7 µg/mL (≈ 210 µM)

**Q.** What about the GI50 (NCI-H522 lung) of the same compound?
**A.** 12.2 µg/mL (≈ 27.7 µM)

**Q.** What about the TGI (NCI-H522 lung) of the same compound?
**A.** 45.9 µg/mL

**Q.** What about the GI50 (SNB-75 CNS) of the same compound?
**A.** 71.5 µg/mL (≈ 162 µM)

**Q.** And the GI50 (UO-31 renal)?
**A.** 94.8 µg/mL (≈ 215 µM)

**Q.** And the GI50 (UACC-257 melanoma)?
**A.** 51.2 µg/mL (≈ 116 µM)

**Q.** What about the GI50 (M14 melanoma) of the same compound?
**A.** 78.8 µg/mL (≈ 178 µM)

**Q.** What about the GI50 (MOLT-4 leukemia) of the same compound?
**A.** 62.9 µg/mL (≈ 142 µM)

**Q.** And the GI50 (K-562 leukemia)?
**A.** 51.9 µg/mL (≈ 118 µM)

**Q.** What about the GI50 (BT-549 breast) of the same compound?
**A.** 63.5 µg/mL (≈ 144 µM)

**Q.** And the GI50 (MALME-3M melanoma)?
**A.** 42.9 µg/mL (≈ 97.2 µM)

**Q.** And the GI50 (SK-MEL-28 melanoma)?
**A.** 44.8 µg/mL (≈ 102 µM)

**Q.** And the GI50 (UACC-62 melanoma)?
**A.** 94.8 µg/mL (≈ 215 µM)

**Q.** With `CCOC(=O)C1(C/C=C\CBr)CCCC1=O` (stereo not drawn) as the compound, how does the TGI (EKVX NSCLC) read?
**A.** > 100 µM

**Q.** What about the TGI (U251 CNS) of the same compound?
**A.** 48.7 µM

**Q.** And the TGI (ACHN renal)?
**A.** 56.5 µM

**Q.** And the TGI (MDA-MB-231 breast)?
**A.** 84 µM

**Q.** What about the TGI (NCI-H23 lung) of the same compound?
**A.** 56.7 µM

**Q.** And the TGI (MDA-MB-435)?
**A.** 57.2 µM

**Q.** What about the TGI (786-0 renal) of the same compound?
**A.** > 100 µM

**Q.** And the TGI (COLO 205 colon)?
**A.** > 100 µM

**Q.** And the TGI (SN12C renal)?
**A.** 40.1 µM

**Q.** What about the TGI (RXF 393 renal) of the same compound?
**A.** 31.3 µM

**Q.** What about the TGI (CAKI-1 renal) of the same compound?
**A.** > 100 µM

**Q.** And the TGI (SK-OV-3 ovarian)?
**A.** > 100 µM

**Q.** What about the TGI (MCF7 breast) of the same compound?
**A.** 55.2 µM

**Q.** And the TGI (SF-295 CNS)?
**A.** > 100 µM

**Q.** What about the TGI (DU-145 prostate) of the same compound?
**A.** 73.2 µM

**Q.** What about the TGI (HCT-15 colon) of the same compound?
**A.** 66.5 µM

**Q.** And the TGI (OVCAR-8 ovarian)?
**A.** > 100 µM

**Q.** And the TGI (HCT-116 colon)?
**A.** 40 µM

**Q.** What about the TGI (NCI/ADR-RES ovarian) of the same compound?
**A.** 57.2 µM

**Q.** And the TGI (A549 NSCLC)?
**A.** > 100 µM

**Q.** What about the TGI (SW-620 colon) of the same compound?
**A.** 54.9 µM

**Q.** What about the TGI (OVCAR-5 ovarian) of the same compound?
**A.** > 100 µM

**Q.** And the TGI (LOX IMVI melanoma)?
**A.** 31.2 µM

**Q.** And the TGI (NCI-H522 lung)?
**A.** 46.8 µM

**Q.** What about the TGI (IGROV1 ovarian) of the same compound?
**A.** > 100 µM

**Q.** What about the TGI (KM12 colon) of the same compound?
**A.** > 100 µM

**Q.** And the TGI (SNB-75 CNS)?
**A.** > 100 µM

**Q.** What about the TGI (UO-31 renal) of the same compound?
**A.** 59.5 µM

**Q.** What about the TGI (PC-3 prostate) of the same compound?
**A.** > 100 µM

**Q.** What about the TGI (SK-MEL-5 melanoma) of the same compound?
**A.** > 100 µM

**Q.** And the TGI (UACC-257 melanoma)?
**A.** > 100 µM

**Q.** And the TGI (M14 melanoma)?
**A.** 75.1 µM

**Q.** What about the TGI (HOP-62 NSCLC) of the same compound?
**A.** 56.7 µM

**Q.** And the TGI (SK-MEL-2 melanoma)?
**A.** > 100 µM

**Q.** What about the TGI (SF-268 CNS) of the same compound?
**A.** > 100 µM

**Q.** And the TGI (HS 578T breast)?
**A.** > 100 µM

**Q.** And the TGI (TK-10 renal)?
**A.** 39 µM

**Q.** What about the TGI (SNB-19 CNS) of the same compound?
**A.** > 100 µM

**Q.** And the TGI (BT-549 breast)?
**A.** 80.3 µM

**Q.** And the TGI (OVCAR-4 ovarian)?
**A.** > 100 µM

**Q.** What about the TGI (MALME-3M melanoma) of the same compound?
**A.** > 100 µM

**Q.** What about the TGI (HT29 colon) of the same compound?
**A.** > 100 µM

**Q.** And the TGI (SK-MEL-28 melanoma)?
**A.** > 100 µM

**Q.** And the TGI (SF-539 CNS)?
**A.** 44.9 µM

**Q.** What about the TGI (UACC-62 melanoma) of the same compound?
**A.** 39.8 µM

**Q.** What about the TGI (NCI-H226 lung) of the same compound?
**A.** 88.6 µM

**Q.** What about the TGI (A498 renal) of the same compound?
**A.** > 100 µM

**Q.** What about the TGI (T-47D breast) of the same compound?
**A.** 94.3 µM
